Assay [1] addresses T1, γ(40)-secretase activity (Homo sapiens, UniProt P49768).
T1 construct: utilizing SH-SY5Y membranes as source of γ-secretase enzyme; endogenous in cells; host or cells: human SH-SY5Y neuroblastoma cell membranes (0.5% CHAPSO)
Put plainly: Exogenous substrate γ-secretase assay, Aβ(40) generation from C100Flag. The following applies: SH-SY5Y membranes, recombinant C100Flag substrate, 0.5% CHAPSO. The class given is biochemical. On the procedure:
(§1) Exogenous substrate γ-secretase assays—For determination of the potencies of Merck A and B, membranes from SH-SY5Y membranes stored in PBS, 5% glycerol were collected by centrifugation for 30 min at 180,000 g. For in vitro generation of Aβ peptides, 80 μg of membranes were incubated with 7.5 μg of recombinant C100Flag (Li et al., 2000a) in 20 mM HEPES, pH 7.3, 2 mM EDTA, 0.1% bovine serum albumin, 0.5% CHAPSO in 100 μl final volume similar to described methods (Li et al., 2000a) in the presence of increasing compound concentrations. Aβ peptides were quantified by an electrochemiluminescence assay in a 96-well plate format [Origen M-Series™ analyzer, Igen] as described (Beher et al., 2001) using 35 μl of the reaction for Aβ(40) and 50 μl for Aβ(42) detection. Non-specific background was defined by the signal obtained when the assay was performed in the presence of 10 μM of Merck A. For determination of γ-secretase activity in the sucrose gradient fractions, 20 μl of each fraction were incubated with 10 μg of recombinant C100Flag and processed further as above.
(§2) FIG. 1. γ-Secretase inhibitors synthesized for this study and their potencies for inhibition of γ(40)- and γ(42)-secretase activities. […] The reduction of Aβ generation was measured relative to Me2SO-treated controls and error bars indicate the standard error the mean from triplicate experiments.

The target in assay [2] is T2, γ(42)-secretase activity (Homo sapiens, UniProt P49768).
T2 construct: utilizing SH-SY5Y membranes as source of γ-secretase enzyme; endogenous in cells; host or cells: human SH-SY5Y neuroblastoma cell membranes (0.5% CHAPSO)
Nature of the assay: Exogenous substrate γ-secretase assay, Aβ(42) generation from C100Flag. Particulars: SH-SY5Y membranes, recombinant C100Flag substrate, 0.5% CHAPSO. It counts as biochemical. The procedure: as §1, §2

Assay [3] deals with Aβ42, Aβ38 and Aβ40 production. The following applies: cited from earlier work.
Assay [4] deals with T3, γ-secretase complex (PS1 heterodimer and nicastrin) (Homo sapiens, UniProt P49768).
T3 construct: mainly occurs as a heterodimer of its N- and C-terminal fragment; endogenous in cells; host or cells: human SH-SY5Y neuroblastoma cell membranes, solubilised in 1% CHAPSO and diluted to 0.5%
Put plainly: Inhibitor affinity precipitation of CHAPSO-solubilized γ-secretase with biotinylated Merck C, Western blot. It counts as binding. Particulars: test compound 200 μM, Merck C 0.1 μM, 2.5 mg beads. On the procedure:
Western blot analyses—Equal amounts of protein were separated by SDS-polyacrylamide gel electrophoresis and transferred to nitrocellulose membranes. Probing of the membranes was carried out with various antibodies, as indicated in the figures, using the enhanced-chemiluminescence system (ECL, Amersham). Quantitation of bands using a computerized image analysis system (MCID, Imaging Research Inc.) was performed as described previously (Beher et al., 1999).
CHAPSO-solubilization of active γ-secretase and inhibitor affinity precipitations—SH-SY5Y membranes stored in PBS, 5% glycerol were collected by centrifugation for 30 min at 180,000 g. Membrane proteins were solubilized in 1% (w/v) CHAPSO, 50 mM MES-NaOH, pH 6.0, 0.15 M NaCl, 5 mM MgCl2, 1×EDTA-free protease inhibitor mixture (Roche Molecular Biochemicals). Insoluble debris was removed by centrifugation at 180,000 g for 30 min and the resulting supernatant (solubilized γ-secretase) adjusted with the same buffer without CHAPSO to give a final detergent concentration of 0.5% CHAPSO (w/v). Endogenous biotinylated proteins were removed by adding streptavidin-coupled magnetic beads and centrifugation for 2 min at 20,000 g after an incubation for 30 min at 4° C. […]
For orientation: In western blotting, separated proteins are transferred to a membrane and probed.

Molecules are shown by their SMILES.

In the case of `CC(C)CC(NC(=O)C(Cc1ccccc1)CC(O)C(Cc1ccccc1)NC(=O)OC(C)(C)C)C(=O)NC(Cc1ccccc1)C(N)=O` (stereo not shown) [Merck A], in assay [1], the “IC50 for inhibition of γ(40)-secretase activity (in vitro generation of Aβ(40))” value was “low nanomolar range”. For the same molecule, the “IC50 for inhibition of γ(42)-secretase activity (in vitro generation of Aβ(42))” value in assay [2] was “low nanomolar range”.

Take `CC(C)Cc1ccc(C(C)C(=O)O)cc1` (stereo not shown) [ibuprofen]: in assay [3], the “Effect on production of Aβ38” value was “increasing”, the “Effect on production of Aβ40” value is listed as “constant” and the “Effect on production of Aβ42” value was “inhibit”.

Consider `COc1ccc2c(c1)c(CC(=O)O)c(C)n2C(=O)c1ccc(Cl)cc1` [indomethacin], for which, in assay [3], the “Effect on production of Aβ38” value was “increasing”, the “Effect on production of Aβ40” value is “constant” and the “Effect on production of Aβ42” value is on record as “inhibit”.

Take `CC1=C(CC(=O)O)c2cc(F)ccc2/C1=C\c1ccc(S(C)(=O)=O)cc1` [sulindac sulfone]: the “Effect on capture efficiency for PS1 heterodimer and mature nicastrin by Merck C” value in assay [4] was “comparable to the DMSO (Me2O) control”. The “Effect on production of Aβ42” value in assay [3] is “does not lower”.

For the molecule `CC(C)CC(NC(=O)C(Cc1ccccc1)CC(O)C(Cc1ccccc1)NC(=O)OC(C)(C)C)C(=O)NC(Cc1ccccc1)C(=O)NCCCCCNC(=O)CCCCCNC(=O)CCCCCNC(=O)CCCCCN` (stereo not shown) [Merck B], the “IC50 for inhibition of γ(40)-secretase activity (in vitro generation of Aβ(40))” value in assay [1] is recorded as “low nanomolar range”. In addition, the “IC50 for inhibition of γ(42)-secretase activity (in vitro generation of Aβ(42))” value in assay [2] is “low nanomolar range”.

As for `CSc1ccc(/C=C2/C(C)=C(CC(=O)O)c3cc(F)ccc32)cc1` [sulindac sulphide], the “Effect on capture efficiency for PS1 heterodimer and mature nicastrin by Merck C” value in assay [4] was “enhanced”. In addition, in assay [3], the “Effect on production of Aβ38” value is “increasing”, the “Effect on production of Aβ40” value is “constant” and the “Effect on production of Aβ42” value is “inhibit”.
